Results reported in ChEMBL document CHEMBL4418493, “N-hydroxyformamide compounds and compositions comprising them for use as BMP1, TLL1 and/or TLL2 inhibitors” (2018).

Legend:
[1] = Reduction in PICP levels in human cardiac fibroblasts incubated for 24 to 48 hrs by ELISA; type: functional
[2] = Reduction in mature collagen deposition levels in human cardiac fibroblasts incubated for 24 to 48 hrs by immunostaining based assay; type: functional
[3] = Drug metabolism in heparinized pooled human plasma at pH 7.5 assessed as formation of (S)-2-(2-ethoxy-4-(5-((((R)-2-((R)-1-(N-hydroxyformamido)propyl)heptanamido)methyl) carbamoyl)furan-2-yl)benzamido)succinic acid at 100 to 2000 ng/ml incubated up to 4 or 24 hrs by LC-MS/MS analysis; type: ADME, cell-free; conditions: pH 7.5, 24 h
[4] = Drug metabolism in heparinized pooled human plasma at pH 7.5 assessed as conversion to active compound at 100 to 2000 ng/ml incubated for 4 by LC-MS/MS analysis; type: ADME, cell-free
[5] = Stability in pH 7.96 assessed as compound purity level at 1 mg/ml heated to 40 degC and measured at 200 hrs by LC/MS analsysis; type: physicochemical; conditions: buffer, read-out: Stability
[6] = target: T1, Bone morphogenetic protein 1 (Homo sapiens, UniProt P13497); assay: Inhibition of C-terminal FLAG-6x-His epitope tagged and N-terminal human RAGE signal sequence tagged human BMP1 (121 to 721 amino acids) expressed in CHO-E1a cells pre-incubated for 10 mins before promyostatin peptide substrate addition and measured after 60 mins using 0.5 nM BMP1 by FRET based assay; type: cell-based
T1 sequence (P13497 whole entry): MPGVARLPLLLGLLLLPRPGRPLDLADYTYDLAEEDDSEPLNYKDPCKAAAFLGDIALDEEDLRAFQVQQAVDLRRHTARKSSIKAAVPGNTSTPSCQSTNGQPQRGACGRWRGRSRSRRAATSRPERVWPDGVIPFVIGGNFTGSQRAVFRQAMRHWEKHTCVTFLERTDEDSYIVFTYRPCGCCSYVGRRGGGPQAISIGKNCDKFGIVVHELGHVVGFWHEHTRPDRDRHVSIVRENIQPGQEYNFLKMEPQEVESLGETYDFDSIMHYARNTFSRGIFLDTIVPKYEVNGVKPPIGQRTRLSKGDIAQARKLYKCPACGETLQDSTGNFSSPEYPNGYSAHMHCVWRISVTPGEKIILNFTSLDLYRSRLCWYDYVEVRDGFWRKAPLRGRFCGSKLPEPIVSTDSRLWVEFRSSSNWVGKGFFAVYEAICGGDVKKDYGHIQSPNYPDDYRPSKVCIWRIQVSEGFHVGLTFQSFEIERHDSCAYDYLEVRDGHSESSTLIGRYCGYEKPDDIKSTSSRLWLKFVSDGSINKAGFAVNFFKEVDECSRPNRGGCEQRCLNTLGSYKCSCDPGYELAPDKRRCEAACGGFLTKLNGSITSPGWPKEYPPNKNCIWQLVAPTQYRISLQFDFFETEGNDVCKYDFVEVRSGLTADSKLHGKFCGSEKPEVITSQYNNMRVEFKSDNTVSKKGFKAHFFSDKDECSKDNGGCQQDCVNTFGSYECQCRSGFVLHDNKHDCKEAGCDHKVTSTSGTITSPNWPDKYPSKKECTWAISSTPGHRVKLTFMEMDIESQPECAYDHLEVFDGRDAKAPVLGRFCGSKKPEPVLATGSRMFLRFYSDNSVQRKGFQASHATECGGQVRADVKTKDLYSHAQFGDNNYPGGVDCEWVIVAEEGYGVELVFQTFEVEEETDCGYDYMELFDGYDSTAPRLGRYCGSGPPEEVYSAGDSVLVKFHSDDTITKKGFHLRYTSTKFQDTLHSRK

[7] = target: Tolloid-like protein 1 (Homo sapiens, UniProt O43897, I156V/N221S/V284A); assay: Inhibition of recombinant human TLL1 I156V/N221S/V284A mutant expressed in CHOE1A cells pre-incubated for 10 mins before promyostatin peptide substrate addition and measured after 60 mins by FRET based assay; type: cell-based
[8] = target: T2, Tolloid-like protein 2 (Homo sapiens, UniProt Q9Y6L7); assay: Inhibition of C-terminal Avi-6x-His epitope tagged and N-terminal human RAGE signal sequence tagged recombinant human TLL2 (26 to 1015 amino acids) expressed in CHOE1A cells incubated for 60 mins with promyostatin peptide substrate by FRET based assay; type: cell-based
T2 sequence (Q9Y6L7 whole entry): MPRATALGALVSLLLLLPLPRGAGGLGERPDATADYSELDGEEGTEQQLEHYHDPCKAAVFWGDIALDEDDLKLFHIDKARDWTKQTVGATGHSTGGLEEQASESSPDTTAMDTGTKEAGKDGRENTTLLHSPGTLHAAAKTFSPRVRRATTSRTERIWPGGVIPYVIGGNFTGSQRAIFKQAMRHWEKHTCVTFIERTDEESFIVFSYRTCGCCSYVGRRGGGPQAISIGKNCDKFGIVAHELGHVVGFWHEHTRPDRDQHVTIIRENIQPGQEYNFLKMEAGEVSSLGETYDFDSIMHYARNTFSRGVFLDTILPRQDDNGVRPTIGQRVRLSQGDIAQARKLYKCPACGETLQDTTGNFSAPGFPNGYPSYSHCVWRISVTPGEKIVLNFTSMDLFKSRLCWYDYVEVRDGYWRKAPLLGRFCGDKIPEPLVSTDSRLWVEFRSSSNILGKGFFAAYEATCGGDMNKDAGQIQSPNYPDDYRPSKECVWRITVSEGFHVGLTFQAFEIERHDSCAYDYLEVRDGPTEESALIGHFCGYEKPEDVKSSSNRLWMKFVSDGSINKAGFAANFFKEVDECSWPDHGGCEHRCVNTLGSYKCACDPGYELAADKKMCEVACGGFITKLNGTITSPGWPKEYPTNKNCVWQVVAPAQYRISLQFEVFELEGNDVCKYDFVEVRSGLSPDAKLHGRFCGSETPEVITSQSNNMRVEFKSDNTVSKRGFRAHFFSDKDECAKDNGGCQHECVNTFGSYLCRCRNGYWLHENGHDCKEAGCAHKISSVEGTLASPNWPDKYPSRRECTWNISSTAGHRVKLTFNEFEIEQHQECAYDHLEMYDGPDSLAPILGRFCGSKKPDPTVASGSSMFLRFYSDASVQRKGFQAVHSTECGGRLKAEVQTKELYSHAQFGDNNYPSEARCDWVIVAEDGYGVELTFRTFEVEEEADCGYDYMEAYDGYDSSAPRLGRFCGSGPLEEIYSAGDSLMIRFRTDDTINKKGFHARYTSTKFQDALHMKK

[9] = Drug metabolism in heparinized pooled human plasma at pH 7.5 assessed as formation of (3-ethoxy-5-(5-((((R)-2-((R)-1-(N-hydroxyformamido)propyl)heptanamido)methyl)carbamoyl) furan-2-yl)phenyl)phosphonic acid at 100 to 2000 ng/ml incubated up to 4 or 24 hrs by LC-MS/MS analysis; type: ADME, cell-free; conditions: pH 7.5, 24 h
[10] = Drug metabolism in heparinized pooled human plasma at pH 7.5 assessed as formation of (S)-2-(2-(carboxymethoxy)-4-(5-((((R)-2-((R)-1-(N-hydroxyformamido)propyl)heptanamido)methyl)carbamoyl)furan-2-yl)benzamido)succinic acid at 100 to 2000 ng/ml incubated up to 4 or 24 hrs by LC-MS/MS analysis; type: ADME, cell-free; conditions: pH 7.5, 24 h

Chain of Tolloid-like protein 1 (O43897 148-1013 I156V/N221S/V284A limits assumed): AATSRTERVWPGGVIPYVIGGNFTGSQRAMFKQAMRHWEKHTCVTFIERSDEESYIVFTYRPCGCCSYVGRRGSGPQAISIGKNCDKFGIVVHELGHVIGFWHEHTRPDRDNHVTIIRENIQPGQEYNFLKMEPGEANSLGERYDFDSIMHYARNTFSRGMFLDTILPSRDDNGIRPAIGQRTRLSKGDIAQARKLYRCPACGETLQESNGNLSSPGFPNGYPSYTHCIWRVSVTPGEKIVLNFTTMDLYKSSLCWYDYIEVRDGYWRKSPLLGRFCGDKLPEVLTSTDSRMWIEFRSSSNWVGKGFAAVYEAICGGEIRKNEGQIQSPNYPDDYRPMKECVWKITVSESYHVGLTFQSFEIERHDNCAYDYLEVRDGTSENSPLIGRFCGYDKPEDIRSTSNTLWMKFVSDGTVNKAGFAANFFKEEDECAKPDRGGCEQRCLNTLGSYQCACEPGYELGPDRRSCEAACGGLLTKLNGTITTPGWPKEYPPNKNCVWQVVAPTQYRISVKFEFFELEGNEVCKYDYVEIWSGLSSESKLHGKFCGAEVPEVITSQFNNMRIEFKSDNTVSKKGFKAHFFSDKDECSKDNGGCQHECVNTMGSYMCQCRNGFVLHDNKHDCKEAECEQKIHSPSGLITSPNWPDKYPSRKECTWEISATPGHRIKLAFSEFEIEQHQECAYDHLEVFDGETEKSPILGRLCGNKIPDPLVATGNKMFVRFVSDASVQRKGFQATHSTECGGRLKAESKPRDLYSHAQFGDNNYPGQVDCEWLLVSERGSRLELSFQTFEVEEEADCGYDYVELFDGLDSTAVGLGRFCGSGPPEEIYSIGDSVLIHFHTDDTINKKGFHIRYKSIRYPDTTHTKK

Row | Compound | IC50 [1] | IC50 [2] | Drug metabolism [3] | Drug metabolism [4] | remaining at 200 h, 1 mg/ml [5] | IC50 [6] | IC50 [7] | IC50 [8] | Drug metabolism [9] | Drug metabolism [10]
1 | CCCCC[C@@H](C(=O)NCNC(=O)c1ccc(-c2ccc(C(=O)N[C@@H](CC(=O)O)C(=O)O)c(OCC)c2)o1)[C@@H](CC)N(C=O)OC(=O)C(C)(C)C | < 3.98 µM | < 1 µM | Metabolite_Detected | > 10% | < 80% |  |  |  |  | 
2 | CCCCC[C@@H](C(=O)NCNC(=O)c1ccc(-c2cc(OCC)cc(P(=O)(O)OCOC(=O)OC(C)C)c2)o1)[C@@H](CC)N(O)C=O | < 0.398 µM |  |  |  |  | < 0.316 µM | < 0.251 µM | < 0.398 µM |  | 
3 | CCCCC[C@@H](C(=O)NCNC(=O)c1ccc(-c2ccc(C(=O)N[C@@H](CC(=O)O)C(=O)OC(C)(C)C)c(OCC)c2)o1)[C@@H](CC)N(O)C=O | 0.398 to 3.98 µM |  |  |  |  | 0.126 to 0.316 µM | 0.251 to 0.398 µM | 0.398 to 0.794 µM |  | 
4 | CCCCC[C@@H](C(=O)NCNC(=O)c1ccc(-c2ccc(C(=O)N[C@@H](CC(=O)O)C(=O)OCC)c(OCC)c2)o1)[C@@H](CC)N(O)C=O | 0.398 to 3.98 µM | < 1 µM |  |  |  | 0.126 to 0.316 µM | 0.251 to 0.398 µM | 0.398 to 0.794 µM |  | 
5 | CCCCC[C@@H](C(=O)NCNC(=O)c1ccc(-c2cc(OCC)cc(P(=O)(O)O)c2)o1)[C@@H](CC)N(C=O)OCc1oc(=O)oc1C | < 3.98 µM |  |  | > 10% | < 80% |  |  |  | Metabolite_Detected | 
6 | CCCCC[C@@H](C(=O)NCNC(=O)c1ccc(-c2ccc(C(=O)N[C@@H](CC(=O)O)C(=O)O)c(OCC(=O)O)c2)o1)[C@@H](CC)N(C=O)OC(=O)OC(C)(C)C | < 3.98 µM |  |  | > 10% | < 80% |  |  |  |  | Metabolite_Detected
7 | CCCCC[C@@H](C(=O)NCNC(=O)c1ccc(-c2ccc(C(=O)N[C@@H](CC(=O)OCC)C(=O)OCC)c(OCC)c2)o1)[C@@H](CC)N(O)C=O | 0.398 to 3.98 µM |  |  |  |  | 0.126 to 0.316 µM | 0.251 to 0.398 µM | 0.398 to 0.794 µM |  | 
8 | CCCCC[C@@H](C(=O)NCNC(=O)c1ccc(-c2cc(OCC)cc(P(=O)(O)O)c2)o1)[C@@H](CC)N(C=O)OCOC(=O)C(C)(C)C |  |  |  | > 10% | < 80% |  |  |  | Metabolite_Detected | 
9 | CCCCC[C@@H](C(=O)NCNC(=O)c1ccc(-c2ccc(C(=O)N[C@@H](CC(=O)O)C(=O)O)c(OCC(=O)O)c2)o1)[C@@H](CC)N(C=O)OC(=O)c1ccccc1OC(C)=O | < 3.98 µM |  |  | > 10% | < 80% |  |  |  |  | Metabolite_Detected
10 | CCCCC[C@@H](C(=O)NCNC(=O)c1ccc(-c2ccc(C(=O)N[C@@H](CC(=O)O)C(=O)O)c(OCC(=O)O)c2)o1)[C@@H](CC)N(C=O)OC(=O)c1ccccc1 |  |  |  | > 10% | < 80% |  |  |  |  | Metabolite_Detected
11 | CCCCC[C@@H](C(=O)NCNC(=O)c1ccc(-c2cc(OCC)cc(P(=O)(O)Oc3ccccc3)c2)o1)[C@@H](CC)N(O)C=O | < 0.398 µM |  |  |  |  | < 0.316 µM | < 0.251 µM | < 0.398 µM |  | 
12 | CCCCC[C@@H](C(=O)NCNC(=O)c1ccc(-c2ccc(C(=O)N[C@@H](CC(=O)O)C(=O)O)c(OCC(=O)O)c2)o1)[C@@H](CC)N(C=O)OC(=O)c1cccnc1 | < 3.98 µM |  |  | > 10% | < 80% |  |  |  |  | Metabolite_Detected
13 | CCCCC[C@@H](C(=O)NCNC(=O)c1ccc(-c2ccc(C(=O)OCC)cc2)o1)[C@@H](CC)N(O)C=O | 0.398 to 3.98 µM |  |  |  |  | 0.126 to 0.316 µM | 0.251 to 0.398 µM | 0.398 to 0.794 µM |  | 
14 | CCCCC[C@@H](C(=O)NCNC(=O)c1ccc(-c2ccc(C(=O)OCCN(C)C)cc2)o1)[C@@H](CC)N(O)C=O | 0.398 to 3.98 µM |  |  |  |  | 0.126 to 0.316 µM | 0.251 to 0.398 µM | 0.398 to 0.794 µM |  | 
15 | CCCCC[C@@H](C(=O)NCNC(=O)c1ccc(-c2ccc(C(=O)N[C@@H](CC(=O)OC(C)(C)C)C(=O)OC(C)(C)C)c(OCC)c2)o1)[C@@H](CC)N(O)C=O | 0.398 to 3.98 µM | < 1 µM |  |  |  | 0.126 to 0.316 µM | 0.251 to 0.398 µM | 0.398 to 0.794 µM |  | 
16 | CCCCC[C@@H](C(=O)NCNC(=O)c1ccc(-c2ccc(C(=O)OCCCC)cc2)o1)[C@@H](CC)N(O)C=O | 0.398 to 3.98 µM |  |  |  |  | 0.126 to 0.316 µM | 0.251 to 0.398 µM | 0.398 to 0.794 µM |  | 
17 | CCCCC[C@@H](C(=O)NCNC(=O)c1ccc(-c2ccc(C(=O)N[C@@H](CC(=O)O)C(=O)OCOC(=O)c3ccccc3)c(OCC)c2)o1)[C@@H](CC)N(O)C=O | < 0.398 µM |  |  |  |  | < 0.316 µM | < 0.251 µM | < 0.398 µM |  | 
18 | CCCCC[C@@H](C(=O)NCNC(=O)c1ccc(-c2cc(OCC)cc(P(=O)(O)O)c2)o1)[C@@H](CC)N(C=O)OC(=O)Cc1ccccc1 |  |  |  | > 10% | < 80% |  |  |  | Metabolite_Detected | 
19 | CCCCC[C@@H](C(=O)NCNC(=O)c1ccc(-c2cc(OCC)cc(P(=O)(Oc3ccccc3)Oc3ccccc3)c2)o1)[C@@H](CC)N(O)C=O | < 3.98 µM |  |  |  |  | 0.126 to 0.316 µM |  |  |  | 
20 | CCCCC[C@@H](C(=O)NCNC(=O)c1ccc(-c2ccc(C(=O)N[C@@H](CC(=O)O)C(=O)O)c(OCC(=O)O)c2)o1)[C@@H](CC)N(C=O)OC(=O)c1ccccc1C |  |  |  | > 10% | < 80% |  |  |  |  | Metabolite_Detected
21 | CCCCC[C@@H](C(=O)NCNC(=O)c1ccc(-c2cc(OCC)cc(P(=O)(OCOC(C)=O)OCOC(C)=O)c2)o1)[C@@H](CC)N(O)C=O | 0.398 to 3.98 µM |  |  |  |  | 0.126 to 0.316 µM | 0.251 to 0.398 µM | 0.398 to 0.794 µM | Metabolite_Detected | 
22 | CCCCC[C@@H](C(=O)NCNC(=O)c1ccc(-c2cc(OCC)cc(P(=O)(O)O)c2)o1)[C@@H](CC)N(C=O)OC(=O)c1ccccc1 |  |  |  | > 10% | < 80% |  |  |  | Metabolite_Detected | 
